Measured values reported in paper PMC9376891 (Nature Communications, 2022).

Molecular target: Rae1_31-368-Nup98_157-213 heterodimer (Rae1-Nup98 complex) (Homo sapiens, UniProt P52948+P78406)
Assay: biochemical
Format: binding

Sequence of Rae1_31-368-Nup98_157-213 heterodimer (Rae1-Nup98 complex) (P78406 31-368 limits assumed): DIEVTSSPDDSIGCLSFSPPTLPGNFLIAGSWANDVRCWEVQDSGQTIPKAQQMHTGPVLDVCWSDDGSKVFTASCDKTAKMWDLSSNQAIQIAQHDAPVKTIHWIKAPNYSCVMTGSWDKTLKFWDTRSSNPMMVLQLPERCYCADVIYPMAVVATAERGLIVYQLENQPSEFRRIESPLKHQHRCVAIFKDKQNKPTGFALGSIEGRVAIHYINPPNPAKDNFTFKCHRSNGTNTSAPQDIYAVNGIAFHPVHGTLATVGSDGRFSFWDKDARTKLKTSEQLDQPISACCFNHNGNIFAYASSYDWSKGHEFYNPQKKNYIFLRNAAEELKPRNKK
Sequence of Rae1_31-368-Nup98_157-213 heterodimer (Rae1-Nup98 complex) (P52948 157-213 partner limits assumed): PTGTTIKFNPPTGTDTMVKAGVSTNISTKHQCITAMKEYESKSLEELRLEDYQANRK

How did the Kd turn out when `CSCC[C@H](NC(=O)[C@H](CCC(=O)O)NC(=O)[C@@H](N)CC(=O)O)C(=O)N[C@@H](CC(=O)O)C(=O)N[C@H](C(=O)N[C@@H](Cc1c[nH]cn1)C(=O)N[C@@H](CC(=O)O)C(=O)N1CCC[C@H]1C(=O)N[C@@H](CC(N)=O)C(=O)N[C@@H](CCC(N)=O)C(=O)N[C@@H](CC(C)C)C(=O)N[C@@H](CCCNC(=N)N)C(=O)N[C@@H](Cc1ccc(O)cc1)C(=O)O)[C@@H](C)O` [VSV M NTE] was run?
The Kd was 117 µM.
